Reference: article PMC6160570, “Maprotiline Prevents Monocrotaline-Induced Pulmonary Arterial Hypertension in Rats” (Frontiers in Pharmacology, 2018)
Where two headings read alike, the source gives them in different places.

Columns and labels:
[1] = molecular target: T1, soluble guanylate cyclase (sGC), α1/β1 heterodimer (Homo sapiens, UniProt Q02108+Q02153); assay: SPR (Biacore T200, sGC immobilized on CM5 chip), positive control; type: binding; parameters: gene GUCY1B1; full-length recombinant sGC (α1 and β1 subunits coexpressed in Sf9 cells); with sGC α1 subunit (GUCY1A1, Q02108)
T1 sequence (Q02153 1-619): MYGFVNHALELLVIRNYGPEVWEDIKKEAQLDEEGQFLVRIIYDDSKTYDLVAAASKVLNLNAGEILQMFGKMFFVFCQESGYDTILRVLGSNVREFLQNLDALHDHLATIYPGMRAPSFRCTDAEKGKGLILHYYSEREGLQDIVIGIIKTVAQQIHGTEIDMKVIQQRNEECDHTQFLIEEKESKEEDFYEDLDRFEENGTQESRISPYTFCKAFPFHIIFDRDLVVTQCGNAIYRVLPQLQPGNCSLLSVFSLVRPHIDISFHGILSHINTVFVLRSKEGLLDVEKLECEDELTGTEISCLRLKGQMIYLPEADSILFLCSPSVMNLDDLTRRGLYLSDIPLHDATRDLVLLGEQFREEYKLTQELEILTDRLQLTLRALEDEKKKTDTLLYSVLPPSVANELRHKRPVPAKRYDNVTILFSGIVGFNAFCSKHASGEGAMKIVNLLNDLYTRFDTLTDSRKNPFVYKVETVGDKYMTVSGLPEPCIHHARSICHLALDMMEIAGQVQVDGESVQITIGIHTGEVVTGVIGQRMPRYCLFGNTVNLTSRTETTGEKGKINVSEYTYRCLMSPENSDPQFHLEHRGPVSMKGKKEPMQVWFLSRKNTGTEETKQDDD
T1 sequence (Q02108 1-690): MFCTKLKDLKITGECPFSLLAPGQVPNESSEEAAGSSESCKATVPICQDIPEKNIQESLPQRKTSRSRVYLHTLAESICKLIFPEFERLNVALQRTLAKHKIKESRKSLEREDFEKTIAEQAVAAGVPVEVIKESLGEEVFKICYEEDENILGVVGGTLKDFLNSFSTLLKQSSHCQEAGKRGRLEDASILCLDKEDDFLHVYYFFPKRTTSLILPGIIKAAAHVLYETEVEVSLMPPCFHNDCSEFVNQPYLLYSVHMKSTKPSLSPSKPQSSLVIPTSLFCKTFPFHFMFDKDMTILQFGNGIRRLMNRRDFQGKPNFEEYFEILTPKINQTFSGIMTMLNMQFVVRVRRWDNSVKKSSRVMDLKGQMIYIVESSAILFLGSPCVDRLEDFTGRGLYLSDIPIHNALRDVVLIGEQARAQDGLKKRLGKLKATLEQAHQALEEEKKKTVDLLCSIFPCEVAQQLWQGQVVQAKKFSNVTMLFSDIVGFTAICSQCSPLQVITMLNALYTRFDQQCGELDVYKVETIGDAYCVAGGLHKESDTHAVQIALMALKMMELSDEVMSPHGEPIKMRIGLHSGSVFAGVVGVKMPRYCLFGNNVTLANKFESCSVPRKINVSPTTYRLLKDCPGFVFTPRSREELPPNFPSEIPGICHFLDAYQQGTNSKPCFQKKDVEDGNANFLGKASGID

[2] = molecular target: T1, soluble guanylate cyclase (sGC), α1/β1 heterodimer; parameters: gene GUCY1B1

Row | SMILES | Kd [1] | Kd [2]
1 | OCc1ccc(-c2nn(Cc3ccccc3)c3ccccc23)o1 [YC-1] | 2.18 µM | 
2 | CNCCCC12CCC(c3ccccc31)c1ccccc12 [maprotiline] |  | 0.307 µM
